Source: publication PMC9376946, “Peptide-RNA Coacervates as a Cradle for the Evolution of Folded Domains” (Journal of the American Chemical Society, 2022)
“And” between values parts separate entries of the source, which are not always exact repeats. Identical values can stand only once.

What was measured:
[1] = system: polyU; test: CW-EPR of PA-12 in the presence of polyU (bound, slow-motion population); format: binding; conditions: spectral simulation
Method: (§1) Lyophilized, spin-labeled peptides were dissolved in Milli-Q water and centrifuged at 4000 rpm for 10 min to remove insoluble aggregates. The soluble fractions were used to prepare stock solutions of 250–500 μM peptide. Labeled peptide concentrations were determined by comparing the area under the curve of the EPR signal against that of standard solutions of 10–285 μM TEMPO. For the EPR measurements in D2O, 200 μL of the stock solution was lyophilized and re-dissolved in D2O. The concentration of the unlabeled peptide stock solutions was determined using the bicinchoninic acid assay (Thermo Fisher Scientific) and ranged from 0.8 to 1.2 mM peptide. A stock solution of 500 mM MES, pH 5.6 was used to adjust all samples to a final concentration of 50 mM MES, pH 5.6. Aliquots of 10 mg/mL polyuridylic acid (polyU; Sigma Aldrich) were prepared in Milli-Q water and diluted as necessary. For CW-EPR measurements, a quartz capillary of 0.6 mm i.d. and 0.84 mm o.d. was filled with 7–8 μL of the sample and sealed with Critoseal (Fisherbrand, Fisher Scientific) at one end. A single capillary was placed in an X-band EPR tube of 2 mm i.d. and 2.4 mm o.d. for measurements, except for spin concentration below 50 μM, where two capillaries were used.
(§2) Each sample was freshly prepared and the time to collect […] CW-EPR data was 30–40 min.
CW-EPR spectra were recorded on an Elexsys E500 X-Band (9.5 GHz) Bruker spectrometer using a high sensitivity resonator at room temperature. The following parameters were used: 0.1 mT field modulation amplitude, a 15 mT scan range, and 20 mW microwave power. Each scan was 42 s and at least 9 scans were accumulated for each data set. For samples with a high concentration of polyU or a low concentration of labeled peptide, at least 25–36 scans were collected to improve the signal to noise (S/N) ratio. Simulations of the spectra were performed using the “Chili” routine of EasySpin (www.easyspin.org).[21]
After characterizing the dynamic and structural properties of PA in solution, we proceeded to explore these properties upon interaction with the homopolymeric RNA molecule polyU. […] PA-12, like the unlabeled peptide, produced coacervates.[17] […] Using CW-EPR, binding of PA to RNA can be tracked through spin label dynamics. We initially kept the concentration of PA-12 constant at 150 μM and varied the amount of polyU. The CW-EPR spectra in Figure 3B indicate superposition of two populations, I and II. […] The relative intensity of II increases with the amount of polyU added, indicating binding of PA-12 to polyU. The percentage of II increased from 32% at 0.1 mg/mL polyU to 93% at 1 mg/mL polyU. Increasing to 2 mg/mL polyU and reducing the PA-12 concentration to 100 μM increased the population of II to 95% (Figures 3B and S15G). Such restricted motion and dynamic components have also been reported for proteins undergoing phase separation.[38],[39]

[2] = system: polyU; test: Coacervate (droplet) formation with polyU, optical microscopy; format: physicochemical; conditions: for coacervate formation with polyU: 150 μM, 50 mM MES pH 5.6
Method: Optical microscopy images of phase-separated samples were taken at the de Picciotto Cancer Cell Observatory Life Sciences Core Facilities (Weizmann Institute of Science) using a 100× objective (oil immersion) on a Leica DMI8 microscope with differential interface contrast. We used 1–2 μL of the sample to make a small drop in an imaging chamber produced by attaching a coverslip to a clean glass slide using a thin strip of double-sided tape (AJ Sign World). Images were processed using the software package Fiji (NIH).
as §1, §2

RIRRASVEELTCVPGIGPRLARRILERLA [PA-12, Precursor-Arg peptide in which position 12 has been modified with a cysteine and attached to an M-TEMPO spin label]
population I (fast motion) ([1]; 30 μM PA-12, 1 mg/mL polyU): 40 ± 5% and 40% | population II (slow motion, polyU-bound) ([1]; 30 μM PA-12, 1 mg/mL polyU): 60 ± 5% and 60% | population I (fast motion) ([1]; 50 μM PA-12, 1 mg/mL polyU): 25 ± 5% | population II (slow motion, polyU-bound) ([1]; 50 μM PA-12, 1 mg/mL polyU): 75 ± 5% | population I (fast motion) ([1]; 100 μM PA-12, 1 mg/mL polyU): 10 ± 4% | population II (slow motion, polyU-bound) ([1]; 100 μM PA-12, 1 mg/mL polyU): 90 ± 4% | population II (slow motion, polyU-bound) ([1]; 100 μM PA-12, 2 mg/mL polyU, 50 mM MES pH 5.6, room temperature): 95% | population II (slow motion, polyU-bound) ([1]; 150 μM PA-12, 0.1 mg/mL polyU, 50 mM MES pH 5.6, room temperature): 32% | population II (slow motion, polyU-bound) ([1]; 150 μM PA-12, 1 mg/mL polyU, 50 mM MES pH 5.6, room temperature): 93 ± 2% and 93% | population I (fast motion) ([1]; 150 μM PA-12, 1 mg/mL polyU): 7 ± 2% | population I (fast motion) ([1]; 200 μM PA-12, 1 mg/mL polyU): 4 ± 2% | population II (slow motion, polyU-bound) ([1]; 200 μM PA-12, 1 mg/mL polyU): 96 ± 2% and 96% | droplet formation with polyU ([2]; 50 μM PA-12 and above, 1 mg/mL polyU): a significant number of droplets | coacervate formation with polyU ([2]; 0.35 or 0.5 mg/mL polyU): only a few tiny droplets were observed | coacervate formation with polyU ([2]; 1 or 2 mg/mL polyU): readily form coacervates
